Source: PubChem BioAssay (NCI)
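Briefly, cells in 96-well plates were exposed to five compound concentrations for 48 h, and endpoints were estimated by linear interpolation. TGI: total growth inhibition.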

Tests used:
Test in all cases: NCI anticancer screen, dose series, 48 h
DMS 114 small cell lung = test system: DMS 114 small cell lung
KM20L2 colon = test system: KM20L2 colon
LXFL 529 NSCLC = test system: LXFL 529 NSCLC
M19-MEL melanoma = test system: M19-MEL melanoma
SNB-78 CNS = test system: SNB-78 CNS
XF 498 CNS = test system: XF 498 CNS
DLD-1 colon = test system: DLD-1 colon
HOP-18 NSCLC = test system: HOP-18 NSCLC

Row | Structure (SMILES) | TGI (DMS 114 small cell lung) | TGI (KM20L2 colon) | TGI (LXFL 529 NSCLC) | TGI (M19-MEL melanoma) | TGI (SNB-78 CNS) | TGI (XF 498 CNS) | TGI (DLD-1 colon) | TGI (HOP-18 NSCLC)
1 | BrC1=CCC23CC=C(Br)[C@H]4CC2(COC3)C[C@@H]1O4 (stereo partly specified) | > 100 µM | > 100 µM | > 100 µM | > 100 µM | 93.6 µM | > 100 µM | – | –
2 | O=c1cc(-c2ccccc2)c2ccccc2[nH]1 | 51.4 µM | – | > 100 µM | > 100 µM | – | – | > 100 µM | > 100 µM
